Test results from US20250034084A1, “COMPOSITIONS AND METHODS FOR PREVENTING OR TREATING MYCOSIS” (AMTIXBIO CO., LTD., priority 2016, published 2025).
≈ marks a conversion by molar mass, not a printed value.

What was measured:
Experiment in all cases: Antifungal activity assay (MIC), NCCLS method
Format in all cases: cell-based
Conditions in all cases: RPMI 1640 medium
[1] = tested on: Cryptococcus neoformans var. grubii H99 (ATCC)
Excerpt: (§1) In order to measure the minimum inhibitory concentration (MIC), strains Candida albicans SC5314 (ATCC), Candida glabrata BG2 (ATCC), and Cryptococcus neoformans var. grubii […] were used. All the strains used in the test examples of the present invention were purchased from Korean Culture Center of Microorganisms (KCCM) and ATCC, and used. […] As a control group, amphotericin B and fluconazole, which are known to have excellent antifungal inhibitory activity with a problem of human toxicity, were used. Specifically, in order to prepare a medium first, 8.4 g of RPMI-1640 powder (Sigma; […]-1L) was added to 900 ml of distilled water. Next, 34.5 g of MOPS was added thereto, to bring the final concentration to 0.165 M. Then, 100 ml of 20% glucose was added thereto, and then the pH of the resultant was adjusted to 7 using NaOH. Next, after performing filtration with a filter, the filtrate was stored in a refrigeration condition at 4° C. for use in the next experiment. The experimental method and procedure for the MIC assay were as follows: […] (c) in a case of Aspergillus fumigatus, a diluent was prepared at a concentration of 1×10^5 conidia/ml; (d) a 96-well plate was used and 100 μl of the solution was added to each well, so that 2 μl of diluted drug was prepared; (e) 200 μl of the solution was added to a well into which the highest concentration of drug was to be added, and dilution was performed by serial dilution; (f) after performing static culture for 48 hours at 37° C., a degree of growth was measured at OD600 and a comparison was made.

[2] = tested on: Candida glabrata BG2 (ATCC)
Excerpt: as §1

[3] = tested on: Candida albicans SC5314 (ATCC)
Excerpt: as §1

Row | SMILES | MIC C. neoformans [1] [µg/mL] | MIC C. glabrata [2] [µg/mL] | MIC C. albicans [3] [µg/mL] | MIC C. glabrata ([2]; hydrochloride) [µg/mL] | MIC C. neoformans ([1]; hydrochloride) [µg/mL]
1 | CCC(C(=O)NCc1ccc(OCc2ccc(Cl)c(Cl)c2)cc1)N(CC)CC (racemic) [Compound 67, (R)/(S)-N-(4-((3,4-dichlorobenzyl)oxy)benzyl-2-(diethylamino)butanamide] | 2 (≈ 4.72 µM) | – | – | – | –
2 | CCC(N)C(=O)NCc1ccc(OCc2ccc(F)cc2)cc1.Cl (racemic) [Compound 19, (R)/(S)-1-((4-((4-(fluorobenzyl)oxy)benzyl)amino)-1-oxobutane-2-aminium chloride] | 64 | >128 | >128 | – | –
3 | CCCC(NCC)C(=O)NCc1ccc(OCc2ccc(C(F)(F)F)cc2)cc1 (racemic) [Compound 64, (R)/(S)-2-(ethylamino)-N-(4-((4-(trifluoromethyl)benzyl)oxy)benzyl)pentanamide] | 4 (≈ 9.79 µM) | – | – | – | –
4 | CCCC(C(=O)NCc1ccc(OCc2ccc(Cl)c(Cl)c2)cc1)N(CC)CC (racemic) [Compound 69, (R)/(S)-N-(4-((3,4-dichlorobenzyl)oxy)benzyl-2-(diethylamino)pentanamide] | 1 (≈ 2.29 µM) | – | – | – | –
5 | CCC(N)C(=O)NCc1ccc(OCc2ccccc2F)cc1.Cl (racemic) [Compound 17, (R)/(S)-1-((4-((2-(fluorobenzyl)oxy)benzyl)amino)-1-oxobutane-2-aminum chloride] | 64 | >128 | >128 | – | –
6 | Cl.O=C(NCc1ccc(OCc2ccc(C(F)(F)F)cc2)cc1)C1CCCN1 (racemic) [Compound 50, (R)/(S)-2-((4-((4-(trifluoromethyl)benzyl)oxy)benzyl)carbamoyl)pyrrolidi-1-nium chloride] | 8 | 128 | 64 | – | –
7 | CCC(C(=O)NCc1ccc(OCc2ccc(Cl)c(Cl)c2)cc1)N(C)C (racemic) [Compound 60, (R)/(S)-N-(4-((3,4-dichlorobenzyl)oxy)benzyl)-2-(dimethylamino)butanamide] | 8 (≈ 20.2 µM) | – | – | – | –
8 | CN1CCCC1C(=O)NCc1ccc(OCc2ccc(C(F)(F)F)cc2)cc1 (racemic) [Compound 43, (R)/(S)-1-methyl-N-(4-((4-(trifluoromethyl)benzyl)oxy)benzyl)pyrrolidine-2-carboxamide] | 8 (≈ 20.4 µM) | 64 (≈ 163 µM) | 32 (≈ 81.5 µM) | – | –
9 | Cl.O=C(NCc1ccc(OCc2ccc(Cl)cc2)cc1)C1CCCN1 (racemic) [Compound 41, (R)/(S)-N-(4-((4-chlorobenzyl)oxy)benzyl)pyrrolidine-2-carboxamide hydrochloride] | – | – | 64 | 64 | 32
10 | CCC(N)C(=O)NCc1ccc(OCc2ccccc2C(F)(F)F)cc1.Cl (racemic) [Compound 20, (R)/(S)-1-oxo-1-((4-((2-(trifluoromethyl)benzyl)oxy)benzyl)amino)butane-2-aminium chloride] | 16 | 64 | 64 | – | –
11 | CCCC(NC)C(=O)NCc1ccc(OCc2ccc(C(F)(F)F)cc2)cc1 (racemic) [Compound 30, (R)/(S)-2-(methylamino)-N-(4-(4-trifluoromethyl)benzyl)oxy)benzyl)pentanamide] | 2 (≈ 5.07 µM) | 8 (≈ 20.3 µM) | 8 (≈ 20.3 µM) | – | –
12 | CCCC(NCC)C(=O)NCc1ccc(OCc2ccc(Cl)c(Cl)c2)cc1 (racemic) [Compound 65, (R)/(S)-N-(4-((3,4-dichlorobenzyl)oxy)benzyl-2-(ethylamino)pentanamide] | 2 (≈ 4.89 µM) | – | – | – | –
13 | CCC(NC)C(=O)NCc1ccc(OCc2ccc(C(F)(F)F)cc2)cc1 (racemic) [Compound 27, (R)/(S)-2-(methylamino)-N-(4-((4-trifluoromethyl)benzyl)oxy)benzyl)butanamide] | 4 (≈ 10.5 µM) | 16 (≈ 42.1 µM) | 16 (≈ 42.1 µM) | – | –
14 | CCC(C(=O)NCc1ccc(OCc2ccc(C(F)(F)F)cc2)cc1)N(CC)CC (racemic) [Compound 66, (R)/(S)-2-(diethylamino)-N-(4-((4-(trifluoromethyl)benzyl)oxy)benzyl)butanamide] | 4 (≈ 9.47 µM) | – | – | – | –
15 | Cl.O=C(NCc1ccc(OCc2ccc(C(F)(F)F)cc2)cc1)C1CCCN1 (racemic) [Compound 40, (R)/(S)-N-(4-((4-(trifluoromethyl)benzyl)oxy)benzyl)pyrrolidine-2-carboxamide hydrochloride] | – | – | 64 | 32 | 16
16 | CN1CCCC1C(=O)NCc1ccc(OCc2ccc(Cl)cc2)cc1 (racemic) [Compound 44, (R)/(s)-1-methyl-N-(4-((4-chlorobenzyl)oxy)benzyl)pyrrolidine-2-carboxamide] | 8 (≈ 22.3 µM) | 64 (≈ 178 µM) | 32 (≈ 89.2 µM) | – | –
17 | CCCC(C(=O)NCc1ccc(OCc2ccc(C(F)(F)F)cc2)cc1)N(CC)CC (racemic) [Compound 68, (R)/(S)-2-(diethylamino)-N-(4-((4-(trifluoromethyl)benzyl)oxy)benzyl)pentanamide] | 2 (≈ 4.58 µM) | – | – | – | –
18 | CN1CCC(C(=O)NCc2ccc(OCc3cccc(F)c3)cc2)C1 (racemic) [Compound 52, (R)/(s)-1-methyl-N-(4-((3-fluorobenzyl)oxy)benzyl)pyrrolidine-3-carboxamide] | 8 (≈ 23.4 µM) | 128 (≈ 374 µM) | 128 (≈ 374 µM) | – | –
19 | Cl.O=C(NCc1ccc(OCc2cccc(F)c2)cc1)C1CCCN1 (racemic) [Compound 49, (R)/(S)-2-((4-((3-fluorobenzyl)oxy)benzyl)carbamoyl)pyrrolidi-1-nium chloride] | 32 | >128 | >128 | – | –
20 | CCC(C(=O)NCc1ccc(OCc2ccc(C(F)(F)F)cc2)cc1)N(C)C (racemic) [Compound 59, (R)/(S)-2-(dimethylamino)-N-(4-((4-trifluoromethyl)benzyl)oxy)benzyl)butanamide] | 8 (≈ 20.3 µM) | – | – | – | –
21 | Cl.O=C(NCc1ccc(OCc2cccc(F)c2)cc1)C1CCCN1 (racemic) [Compound 38, (R)/(S)-N-(4-((3-fluorobenzyl)oxy)benzyl)pyrrolidine-2-carboxamide hydrochloride] | – | – | – | – | 128
22 | CCC(N)C(=O)NCc1ccc(OCc2cccc(C(F)(F)F)c2)cc1.Cl (racemic) [Compound 21, (R)/(S)-1-oxo-1-((4-((3-(trifluoromethyl)benzyl)oxy)benzyl)amino)butane-2-aminium chloride] | 16 | 64 | 64 | – | –
23 | CN1CCC(C(=O)NCc2ccc(OCc3ccc(C(F)(F)F)cc3)cc2)C1 (racemic) [Compound 53, (R)/(S)-1-methyl-N-(4-((4-(trifluoromethyl)benzyl)oxy)benzyl)pyrrolidine-3-carboxamide] | 8 (≈ 20.4 µM) | 64 (≈ 163 µM) | 64 (≈ 163 µM) | – | –
24 | CCCC(N)C(=O)NCc1ccc(OCc2ccc(Cl)c(Cl)c2)cc1.Cl (racemic) [Compound 58, (R)/(S)-1-((4-((3,4-dichlorobenzyl)oxy)benzyl)amino)-1-oxopentane-2-aminium chloride] | 4 | – | – | – | –
25 | CCC(N)C(=O)NCc1ccc(OCc2ccc(Cl)c(Cl)c2)cc1.Cl (racemic) [Compound 57, (R)/(S)-1-((4-(3,4-dichlorobenzyl)oxy)benzyl)amino)-1-oxobutane-2-aminium chloride] | 8 | – | – | – | –
26 | CCNC(CC)C(=O)NCc1ccc(OCc2ccc(C(F)(F)F)cc2)cc1 (racemic) [Compound 62, (R)/(S)-2-(ethylamino)-N-(4-((4-trifluoromethyl)benzyl)oxy)benzyl)butanamide] | 8 (≈ 20.3 µM) | – | – | – | –
27 | CCC(C(=O)NCc1ccc(OCc2ccc(Cl)c(Cl)c2)cc1)N(C)C (racemic) [Compound 61, (R)/(S)-N-(4-((3,4-dichlorobenzyl)oxy)benzyl)-2-(dimethylamino)butanamide] | 2 (≈ 5.06 µM) | – | – | – | –
28 | CCNC(CC)C(=O)NCc1ccc(OCc2ccc(Cl)c(Cl)c2)cc1 (racemic) [Compound 63, (R)/(S)-N-(4-((3,4-dichlorobenzyl)oxy)benzyl-2-(ethylamino)butanamide] | 4 (≈ 10.1 µM) | – | – | – | –
